Test results published in the supplement of paper PMC10307832.

Key:
Test in all cases: relative viability (nuclei count vs DMSO), 5 days (fraction); higher = more cells survive
RO-3306 + Foretinib = compound: C1=CC2=C(C=CC(=C2)C=C3C(=O)NC(=NCC4=CC=CS4)S3)N=C1 [RO-3306] + COc1cc2c(Oc3ccc(NC(=O)C4(C(=O)Nc5ccc(F)cc5)CC4)cc3F)ccnc2cc1OCCCN1CCOCC1 [Foretinib] (partner 0.25 µM)
Outline: (§1)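 Nuclei were stained with Hoechst during a one-step fixation (final 0.05% Triton X-100, 1% formaldehyde, 1 ug/ml Hoechst) carried out 5 days after dosing, then counted on 4× images. The cells, lung cancer lines in 1536-well plates, had been dosed by pin tool the day after seeding with one drug alone or a fixed anchor-drug dose plus five library-drug doses (not always all listed) in √10 steps. Relative viability is the nuclei count in treated wells divided by that in vehicle wells, and each value is the median of duplicate plates.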

RO-3306 + OSI-027 = compound: C1=CC2=C(C=CC(=C2)C=C3C(=O)NC(=NCC4=CC=CS4)S3)N=C1 [RO-3306] + COc1cccc2cc(-c3nc([C@H]4CC[C@H](C(=O)O)CC4)n4ncnc(N)c34)[nH]c12 [OSI-027] (partner 0.5 µM)
Outline: as §1

[1] = compound: O=S(=O)(c1ccccc1)N(CC(F)(F)F)c1ccc(C(O)(C(F)(F)F)C(F)(F)F)cc1 + COc1cc2c(Oc3ccc(NC(=O)C4(C(=O)Nc5ccc(F)cc5)CC4)cc3F)ccnc2cc1OCCCN1CCOCC1 [Foretinib] (partner 0.25 µM)
Outline: as §1

[2] = compound: O=S(=O)(c1ccccc1)N(CC(F)(F)F)c1ccc(C(O)(C(F)(F)F)C(F)(F)F)cc1 + C[C@]1(O)C[C@@H](c2nc(-c3ccc4ccc(-c5ccccc5)nc4c3)c3c(N)nccn32)C1 [Linsitinib] (partner 1 µM)
Outline: as §1

[3] = compound: O=S(=O)(c1ccccc1)N(CC(F)(F)F)c1ccc(C(O)(C(F)(F)F)C(F)(F)F)cc1 + Cc1nc(NC(=O)N2CCC[C@H]2C(N)=O)sc1-c1ccnc(C(C)(C)C(F)(F)F)c1 [Alpelisib] (partner 2 µM)
Outline: as §1

| Cell Line | relative viability (RO-3306 + Foretinib; first compound 0.01 µM) | relative viability (RO-3306 + Foretinib; first compound 0.03162 µM) | relative viability (RO-3306 + Foretinib; first compound 0.1 µM) | relative viability (RO-3306 + Foretinib; first compound 0.3162 µM) | relative viability (RO-3306 + Foretinib; first compound 1 µM) | relative viability (RO-3306 + OSI-027; first compound 0.01 µM) | relative viability (RO-3306 + OSI-027; first compound 0.03162 µM) | relative viability (RO-3306 + OSI-027; first compound 0.1 µM) | relative viability (RO-3306 + OSI-027; first compound 0.3162 µM) | relative viability (RO-3306 + OSI-027; first compound 1 µM) | relative viability ([1]; first compound 0.8 µM) | relative viability ([1]; first compound 2.53 µM) | relative viability ([1]; first compound 8 µM) | relative viability ([2]; first compound 0.8 µM) | relative viability ([2]; first compound 2.53 µM) | relative viability ([2]; first compound 8 µM) | relative viability ([3]; first compound 0.8 µM) | relative viability ([3]; first compound 2.53 µM) | relative viability ([3]; first compound 8 µM) |
| --- | --- | --- | --- | --- | --- | --- | --- | --- | --- | --- | --- | --- | --- | --- | --- | --- | --- | --- | --- |
| LC-2-ad | 0.877 | 0.804 | 0.941 | 0.967 | 0.942 | 0.863 | 0.735 | 0.781 | 0.932 | 0.849 | 1.06 | 0.912 | 0.867 | 0.701 | 0.831 | 0.816 | 0.576 | 0.843 | 0.841 |
| NCI-H1651 | 0.986 | 0.723 | 0.879 | 0.8 | 0.823 | 0.796 | 0.564 | 0.633 | 0.794 | 0.609 | 0.974 | 0.795 | 0.68 | 1.04 | 0.901 | 1.02 | 0.94 | 0.972 | 0.89 |
| NCI-H838 | 1.13 | 0.966 | 1.06 | 1.16 | 1.06 | 0.334 | 0.394 | 0.35 | 0.412 | 0.373 | 1.15 | 1.05 | 1.02 | 1.13 | 1.04 | 0.97 | 1.12 | 0.923 | 1.07 |
| 201T | 1.28 | 1.27 | 1.01 | 1.03 | 0.613 | 0.586 | 0.729 | 0.709 | 0.779 | 0.672 | 1.1 | 0.968 | 0.92 | 0.996 | 0.941 | 1.04 | 1 | 0.915 | 0.987 |
| HOP-62 | 1.2 | 1.07 | 1.05 | 1.05 | 1.1 | 0.827 | 0.593 | 0.727 | 0.89 | 0.8 | 1.08 | 1.09 | 0.881 | 1.14 | 0.607 | 0.836 | 0.551 | 0.954 | 0.706 |
| PC-3 [JPC-3] | 1.01 | 1 | 1.01 | 1.07 | 1.03 | 0.851 | 0.718 | 0.787 | 0.681 | 0.741 | 1.1 | 0.983 | 0.951 | 0.984 | 0.887 | 0.899 | 1.18 | 0.995 | 1.02 |
| COR-L23 | 0.958 | 0.941 | 0.966 | 1.13 | 1.08 | 0.741 | 0.688 | 0.783 | 0.632 | 0.514 | 0.971 | 1.01 | 0.888 | 1.12 | 0.971 | 0.748 | 0.846 | 0.8 | 0.867 |
| ABC-1 | 1.06 | 0.975 | 0.999 | 1.1 | 1.06 | 0.411 | 0.375 | 0.402 | 0.483 | 0.403 | 1.31 | 1.19 | 1.08 | 0.85 | 0.581 | 0.485 | 0.936 | 0.916 | 1.1 |
| COR-L 105 | 1.74 | 1.23 | 1.06 | 1.17 | 0.859 | 0.589 | 0.607 | 0.64 | 0.864 | 0.735 | 1.13 | 0.852 | 1.48 | 0.896 | 0.758 | 0.96 | 1.13 | 0.848 | 0.989 |
| NCI-H1915 | 1.14 | 0.891 | 1.15 | 1.11 | 1.23 | 0.698 | 0.594 | 0.613 | 0.637 | 0.396 | 1.1 | 1.03 | 1.1 | 1.14 | 1.03 | 1.06 | 1.09 | 1.03 | 1.02 |
| PC-14 | 0.968 | 0.739 | 0.935 | 1.04 | 0.917 | 0.895 | 0.609 | 0.76 | 1.37 | 0.86 | 1.11 | 1.09 | 0.988 | 1.23 | 1.07 | 0.888 | 0.829 | 0.697 | 0.525 |
| NCI-H2126 | 1.58 | 0.914 | 1.26 | 1.19 | 1.01 | 0.627 | 0.597 | 0.707 | 0.708 | 0.727 | 1.35 | 1.19 | 1.1 | 0.783 | 0.718 | 0.739 | 0.878 | 0.768 | 0.773 |
| HARA | 1.08 | 0.58 | 0.884 | 0.882 | 0.767 | 0.661 | 0.449 | 0.527 | 0.612 | 0.436 | 0.845 | 0.782 | 0.849 | 0.901 | 0.847 | 0.776 | 0.647 | 0.721 | 0.539 |
| NCI-H23 | 0.972 | 0.728 | 0.833 | 1.08 | 0.978 | 0.531 | 0.462 | 0.575 | 0.519 | 0.403 | 1.02 | 1.16 | 1 | 0.627 | 0.571 | 0.605 | 0.905 | 0.818 | 0.618 |
| NCI-H1793 | 0.654 | 0.265 | 0.627 | 0.748 | 0.735 | 0.266 | 0.277 | 0.291 | 0.251 | 0.262 | 0.484 | 0.321 | 0.566 | 0.836 | 0.641 | 0.66 | 0.585 | 0.491 | 0.578 |
| LK-2 | 1.28 | – | 1.5 | 1.17 | 1.37 | 0.209 | – | 0.157 | 0.17 | 0.202 | 1.21 | 1.16 | 0.835 | 0.643 | 0.553 | 0.301 | 1.08 | 1.16 | 1.05 |
